Target: T1, STK38L (NDR2) (Homo sapiens, UniProt Q9Y2H1)
T1 construct: purchased Thermo Fisher Scientific (Life Technologies) SelectScreen
Test: SelectScreen LanthaScreen
Type: binding
Settings: read-out: % displacement
In short: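 Percent values come from Thermo SelectScreen profiling of NU5455, combining activity and binding assays. CSF1R was run in Z'LYTE format at Km app ATP, and CAMK1 in Adapta format with ATP listed at 10.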

T1 sequence (Q9Y2H1 whole entry): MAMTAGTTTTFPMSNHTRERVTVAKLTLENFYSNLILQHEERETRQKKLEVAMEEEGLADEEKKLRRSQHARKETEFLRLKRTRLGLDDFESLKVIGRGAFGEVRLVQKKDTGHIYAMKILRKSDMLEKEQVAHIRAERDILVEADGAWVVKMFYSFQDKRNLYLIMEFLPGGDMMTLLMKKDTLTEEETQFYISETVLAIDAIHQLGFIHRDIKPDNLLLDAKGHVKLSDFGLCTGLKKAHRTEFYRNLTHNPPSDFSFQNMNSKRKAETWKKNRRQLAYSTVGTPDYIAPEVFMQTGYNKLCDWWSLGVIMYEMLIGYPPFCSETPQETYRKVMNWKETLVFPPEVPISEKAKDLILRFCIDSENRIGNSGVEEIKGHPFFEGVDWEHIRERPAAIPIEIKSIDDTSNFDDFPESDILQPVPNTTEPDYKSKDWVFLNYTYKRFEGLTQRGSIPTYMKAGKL

CN(C(=O)CN1CCOCC1)c1ccc2sc3c(-c4cccc5c(=O)cc(N6CC7CCC(C6)O7)oc45)cccc3c2c1 [NU5455]
inhibition at 1 µM: -8.4%

Source: article PMC6934184, “Selective DNA-PKcs inhibition extends the therapeutic index of localized radiotherapy and chemotherapy” (The Journal of Clinical Investigation, 2019)
